Assay results from patent US20220323406A1, “METHODS AND COMPOSITIONS FOR DIFFERENTIATING STEM CELLS” (Massachusetts Institute of Technology, priority 2019, published 2022).
Structures can show the parent of a compound that is named as a salt.

Experiments:
[1] = system: ENR+CD organoids (ISC to Paneth cell differentiation); assay: Primary screen: basal (non-stimulated) lysozyme secretion LYZ.NS, 2.5-D 384-well ENR+CD organoid differentiation; format: cell-based, mouse; conditions: primary screen; for Z.LYZ.NS: standard z score
Text: (§1) High-throughput screening.

[2] = system: ENR+CD organoids (ISC to Paneth cell differentiation); assay: Primary screen: CCh-stimulated lysozyme secretion LYZ.S, 2.5-D 384-well ENR+CD organoid differentiation; format: cell-based, mouse; conditions: primary screen
Text: as §1

ENR+CD organoids = assay: Primary screen: ATP (CellTiter-Glo 3D, CTG) cell number/viability, 2.5-D 384-well ENR+CD organoids; conditions: primary screen;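 also: compounds given at plating and again on day 3 over a 6-day differentiation from ENR+CV stem-cell-enriched precursors, ATP measured on day 6, plate median as control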

SMILES: COc1ccccc1Oc1c(NS(=O)(=O)c2ccc(C(C)(C)C)cc2)nc(-c2ncccn2)nc1OCCO [Bosentan Hydrate]
- Dose.FC.LYZ.NS ([1]; dose 0.08 uM): 0.090 log2 fold change
- Z.LYZ.NS (standard z score) ([1]; dose 0.08 uM): 0.785
- Dose.FC.LYZ.NS ([1]; dose 0.40 uM): 0.068 log2 fold change
- Z.LYZ.NS (standard z score) ([1]; dose 0.40 uM): 0.589
- Dose.FC.LYZ.NS ([1]; dose 2.00 uM): 0.039 log2 fold change
- Z.LYZ.NS (standard z score) ([1]; dose 2.00 uM): 0.337
- Dose.FC.LYZ.NS ([1]; dose 10.00 uM): 0.058 log2 fold change
- Z.LYZ.NS (standard z score) ([1]; dose 10.00 uM): 0.508
- Dose.FC.LYZ.S ([2]; dose 0.08 uM): 0.145 log2 fold change
- Dose.FC.LYZ.S ([2]; dose 0.40 uM): 0.100 log2 fold change
- Dose.FC.LYZ.S ([2]; dose 2.00 uM): 0.014 log2 fold change
- Dose.FC.LYZ.S ([2]; dose 10.00 uM): 0.045 log2 fold change
- Dose.FC.CTG (ENR+CD organoids; dose 0.08 uM): 0.204 log2 fold change
- Dose.FC.CTG (ENR+CD organoids; dose 0.40 uM): 0.207 log2 fold change
- Dose.FC.CTG (ENR+CD organoids; dose 2.00 uM): 0.121 log2 fold change
- Dose.FC.CTG (ENR+CD organoids; dose 10.00 uM): 0.085 log2 fold change

SMILES: COc1cccc2c1C(=O)c1c(O)c3c(c(O)c1C2=O)C[C@@](O)(C(C)=O)C[C@@H]3O[C@H]1C[C@H](N)[C@H](O)[C@H](C)O1 [Daunorubicin HCl]
- Dose.FC.LYZ.NS ([1]; dose 0.08 uM): −0.136 log2 fold change
- Dose.FC.LYZ.NS ([1]; dose 0.40 uM): −0.241 log2 fold change
- Dose.FC.LYZ.NS ([1]; dose 2.00 uM): −0.262 log2 fold change
- Dose.FC.LYZ.NS ([1]; dose 10.00 uM): −0.260 log2 fold change
- Z.LYZ.NS ([1]; dose 0.08 uM): −1.188
- Z.LYZ.NS ([1]; dose 0.40 uM): −2.099
- Z.LYZ.NS ([1]; dose 2.00 uM): −2.280
- Z.LYZ.NS ([1]; dose 10.00 uM): −2.262
- Dose.FC.LYZ.S ([2]; dose 0.08 uM): −0.096 log2 fold change
- Dose.FC.LYZ.S ([2]; dose 0.40 uM): −0.329 log2 fold change
- Dose.FC.LYZ.S ([2]; dose 2.00 uM): −0.343 log2 fold change
- Dose.FC.LYZ.S ([2]; dose 10.00 uM): −0.374 log2 fold change
- Dose.FC.CTG (ENR+CD organoids; dose 0.08 uM): −0.467 log2 fold change
- Dose.FC.CTG (ENR+CD organoids; dose 0.40 uM): −0.601 log2 fold change
- Dose.FC.CTG (ENR+CD organoids; dose 2.00 uM): −0.817 log2 fold change
- Dose.FC.CTG (ENR+CD organoids; dose 10.00 uM): −1.100 log2 fold change

SMILES: COc1c(O)cc2c(c1O)[C@@H]1O[C@H](CO)[C@@H](O)[C@H](O)[C@H]1OC2=O [Bergenin]
- Dose.FC.LYZ.NS ([1]; dose 0.08 uM): 0.164 log2 fold change
- Z.LYZ.NS (standard z score) ([1]; dose 0.08 uM): 1.432
- Dose.FC.LYZ.NS ([1]; dose 0.40 uM): 0.098 log2 fold change
- Z.LYZ.NS (standard z score) ([1]; dose 0.40 uM): 0.852
- Dose.FC.LYZ.NS ([1]; dose 2.00 uM): 0.080 log2 fold change
- Z.LYZ.NS (standard z score) ([1]; dose 2.00 uM): 0.699
- Dose.FC.LYZ.NS ([1]; dose 10.00 uM): 0.103 log2 fold change
- Z.LYZ.NS (standard z score) ([1]; dose 10.00 uM): 0.898
- Dose.FC.LYZ.S ([2]; dose 0.08 uM): 0.198 log2 fold change
- Dose.FC.LYZ.S ([2]; dose 0.40 uM): 0.108 log2 fold change
- Dose.FC.LYZ.S ([2]; dose 2.00 uM): 0.125 log2 fold change
- Dose.FC.LYZ.S ([2]; dose 10.00 uM): 0.144 log2 fold change
- Dose.FC.CTG (ENR+CD organoids; dose 0.08 uM): 0.288 log2 fold change
- Dose.FC.CTG (ENR+CD organoids; dose 0.40 uM): 0.245 log2 fold change
- Dose.FC.CTG (ENR+CD organoids; dose 2.00 uM): 0.205 log2 fold change
- Dose.FC.CTG (ENR+CD organoids; dose 10.00 uM): 0.344 log2 fold change

SMILES: O=C(c1cncc(Br)c1)N1CCC(N2CCCC2)CC1 [UNC669]
- Dose.FC.LYZ.NS ([1]; dose 0.08 uM): 0.066 log2 fold change
- Z.LYZ.NS (standard z score) ([1]; dose 0.08 uM): 0.578
- Dose.FC.LYZ.NS ([1]; dose 0.40 uM): −0.006 log2 fold change
- Z.LYZ.NS (standard z score) ([1]; dose 0.40 uM): −0.048
- Dose.FC.LYZ.NS ([1]; dose 2.00 uM): 0.070 log2 fold change
- Z.LYZ.NS (standard z score) ([1]; dose 2.00 uM): 0.606
- Dose.FC.LYZ.NS ([1]; dose 10.00 uM): 0.029 log2 fold change
- Z.LYZ.NS (standard z score) ([1]; dose 10.00 uM): 0.249
- Dose.FC.LYZ.S ([2]; dose 0.08 uM): 0.047 log2 fold change
- Dose.FC.LYZ.S ([2]; dose 0.40 uM): −0.029 log2 fold change
- Dose.FC.LYZ.S ([2]; dose 2.00 uM): 0.025 log2 fold change
- Dose.FC.LYZ.S ([2]; dose 10.00 uM): 0.002 log2 fold change
- Dose.FC.CTG (ENR+CD organoids; dose 0.08 uM): −0.095 log2 fold change
- Z.CTG (standard z score) (ENR+CD organoids; dose 0.08 uM): −0.226
- Dose.FC.CTG (ENR+CD organoids; dose 0.40 uM): 0.096 log2 fold change
- Z.CTG (standard z score) (ENR+CD organoids; dose 0.40 uM): 0.228
- Dose.FC.CTG (ENR+CD organoids; dose 2.00 uM): −0.235 log2 fold change
- Z.CTG (standard z score) (ENR+CD organoids; dose 2.00 uM): −0.561
- Dose.FC.CTG (ENR+CD organoids; dose 10.00 uM): 0.073 log2 fold change
- Z.CTG (standard z score) (ENR+CD organoids; dose 10.00 uM): 0.174

SMILES: Cc1cccc(-c2nn3c(c2-c2ccnc4ccc(C(N)=O)cc24)CCC3)n1 [LY2157299]
- Dose.FC.LYZ.NS (log2 fold change) ([1]; dose 0.08 uM): 0.227
- Z.LYZ.NS (standard z score) ([1]; dose 0.08 uM): 1.973
- Dose.FC.LYZ.NS (log2 fold change) ([1]; dose 0.40 uM): 0.140
- Z.LYZ.NS (standard z score) ([1]; dose 0.40 uM): 1.221
- Dose.FC.LYZ.NS (log2 fold change) ([1]; dose 2.00 uM): 0.092
- Z.LYZ.NS (standard z score) ([1]; dose 2.00 uM): 0.799
- Dose.FC.LYZ.NS (log2 fold change) ([1]; dose 10.00 uM): 0.162
- Z.LYZ.NS (standard z score) ([1]; dose 10.00 uM): 1.408
- Dose.FC.LYZ.S (log2 fold change) ([2]; dose 0.08 uM): 0.187
- Dose.FC.LYZ.S (log2 fold change) ([2]; dose 0.40 uM): 0.199
- Dose.FC.LYZ.S (log2 fold change) ([2]; dose 2.00 uM): 0.113
- Dose.FC.LYZ.S (log2 fold change) ([2]; dose 10.00 uM): 0.223
- Dose.FC.CTG (log2 fold change) (ENR+CD organoids; dose 0.08 uM): 0.091
- Z.CTG (standard z score) (ENR+CD organoids; dose 0.08 uM): 0.218
- Dose.FC.CTG (log2 fold change) (ENR+CD organoids; dose 0.40 uM): 0.137
- Z.CTG (standard z score) (ENR+CD organoids; dose 0.40 uM): 0.328
- Dose.FC.CTG (log2 fold change) (ENR+CD organoids; dose 2.00 uM): 0.017
- Z.CTG (standard z score) (ENR+CD organoids; dose 2.00 uM): 0.041
- Dose.FC.CTG (log2 fold change) (ENR+CD organoids; dose 10.00 uM): 0.095
- Z.CTG (standard z score) (ENR+CD organoids; dose 10.00 uM): 0.226
